{
  "source": "patent US7098039B1",
  "about": "“Analysis of a sample to determine its characteristic cycle time” (The Victoria University of Manchester, priority 1998, dated 2006)",
  "tested_on": "peptide sequence VCDWWGWGIC (mimic of the binding of drugs by the drug efflux protein P-glycoprotein)",
  "assay": "Quenching of the natural tryptophan fluorescence of peptide […] on drug binding (FIG. 7h titration)",
  "settings": "for relative intensity of the peak at 359.25 nm, indicating the degree of quenching: peptide 49.1 μM, 0.1 M Tris pH 7.5",
  "text": "The system illustrated in FIG. 7 may be a drug binding to a protein or peptide comprising fluorescent amino acids at the site of binding.\nThe number in brackets, following each titration, is the relative intensity of the peak at 359.25 nm, indicating the degree of quenching.",
  "key": {"[1]": {"settings": "peptide VCDWWGWGIC, linear sequence or cyclised, result in words"}},
  "note": "Read-outs that look alike come from different tables or passages of the source.",
  "data": [
    {"molecule": "CN1C(=O)CN=C(c2ccccc2)c2cc(Cl)ccc21", "note": "[Diazepam]", "values": [
      {"measurement": "natural tryptophan fluorescence of the peptide quenched by the drug", "result": "quenched"}
    ]},
    {"molecule": "C[C@H]1O[C@@H](O[C@H]2[C@@H](O)C[C@H](O[C@H]3[C@@H](O)C[C@H](O[C@H]4CC[C@@]5(C)[C@H](CC[C@@H]6[C@@H]5C[C@@H](O)[C@]5(C)[C@@H](C7=CC(=O)OC7)CC[C@]65O)C4)O[C@@H]3C)O[C@@H]2C)C[C@H](O)[C@@H]1O", "note": "[Digoxin]", "values": [
      {"measurement": "natural tryptophan fluorescence of the peptide quenched by the drug", "setting": "[1]", "result": "quenched"}
    ]},
    {"molecule": "COc1cccc2c1C(=O)c1c(O)c3c(c(O)c1C2=O)C[C@@](O)(C(=O)CO)C[C@@H]3O[C@H]1C[C@H](N)[C@H](O)[C@H](C)O1", "note": "[Doxorubicin]", "values": [
      {"measurement": "natural tryptophan fluorescence of the peptide quenched by the drug", "setting": "[1]", "result": "quenched"},
      {"measurement": "relative intensity of the peak at 359.25 nm, indicating the degree of quenching", "setting": "peptide:doxorubicin 1:0.1, 2.9 ml, without doxorubicin normalised at 999.99", "result": 917.99},
      {"measurement": "relative intensity of the peak at 359.25 nm, indicating the degree of quenching", "setting": "peptide:doxorubicin 1:0.2, without doxorubicin 999.99", "result": 835.53},
      {"measurement": "relative intensity of the peak at 359.25 nm, indicating the degree of quenching", "setting": "peptide:doxorubicin 1:0.3, without doxorubicin 999.99", "result": 769.34},
      {"measurement": "relative intensity of the peak at 359.25 nm, indicating the degree of quenching", "setting": "peptide:doxorubicin 1:0.4, without doxorubicin 999.99", "result": 704.25},
      {"measurement": "relative intensity of the peak at 359.25 nm, indicating the degree of quenching", "setting": "peptide:doxorubicin 1:0.5, without doxorubicin 999.99", "result": 633.91},
      {"measurement": "relative intensity of the peak at 359.25 nm, indicating the degree of quenching", "setting": "peptide:doxorubicin 1:0.6, without doxorubicin 999.99", "result": 594.31},
      {"measurement": "relative intensity of the peak at 359.25 nm, indicating the degree of quenching", "setting": "peptide:doxorubicin 1:0.7, without doxorubicin 999.99", "result": 547.73},
      {"measurement": "relative intensity of the peak at 359.25 nm, indicating the degree of quenching", "setting": "peptide:doxorubicin 1:0.8, without doxorubicin 999.99", "result": 498.54},
      {"measurement": "relative intensity of the peak at 359.25 nm, indicating the degree of quenching", "setting": "peptide:doxorubicin 1:0.9, without doxorubicin 999.99", "result": 457.70},
      {"measurement": "relative intensity of the peak at 359.25 nm, indicating the degree of quenching", "setting": "peptide:doxorubicin 1:1, without doxorubicin 999.99", "result": 415.96},
      {"measurement": "relative intensity of the peak at 359.25 nm, indicating the degree of quenching", "setting": "peptide:doxorubicin 1:1.1, without doxorubicin 999.99", "result": 390.24}
    ]},
    {"molecule": "CC[C@H]1OC(=O)[C@H](C)[C@@H](O[C@H]2C[C@@](C)(OC)[C@@H](O)[C@H](C)O2)[C@H](C)[C@@H](O[C@@H]2O[C@H](C)C[C@H](N(C)C)[C@H]2O)[C@](C)(O)C[C@@H](C)C(=O)[C@H](C)[C@@H](O)[C@]1(C)O", "note": "[Erythromycin]", "values": [
      {"measurement": "natural tryptophan fluorescence of the peptide quenched by the drug", "setting": "[1]", "result": "quenched"}
    ]},
    {"molecule": "O=c1c(-c2ccc(O)cc2)coc2cc(O)cc(O)c12", "note": "[Genistein]", "values": [
      {"measurement": "natural tryptophan fluorescence of the peptide quenched by the drug", "setting": "peptide […], linear sequence or cyclised, result in words", "result": "quenched"}
    ]},
    {"molecule": "N[C@@H](Cc1ccc(N(CCCl)CCCl)cc1)C(=O)O", "note": "[Melphalan]", "values": [
      {"measurement": "natural tryptophan fluorescence of the peptide quenched by the drug", "setting": "[1]", "result": "quenched"}
    ]},
    {"molecule": "CO[C@@H]1[C@@H](OC(N)=O)[C@@H](O)[C@H](Oc2ccc3c(O)c(NC(=O)c4ccc(O)c(CC=C(C)C)c4)c(=O)oc3c2C)OC1(C)C", "note": "[Novobiocin]", "values": [
      {"measurement": "natural tryptophan fluorescence of the peptide quenched by the drug", "setting": "[1]", "result": "quenched"}
    ]},
    {"molecule": "COC(=O)[C@H]1[C@H]2C[C@@H]3c4[nH]c5cc(OC)ccc5c4CCN3C[C@H]2C[C@@H](OC(=O)c2cc(OC)c(OC)c(OC)c2)[C@@H]1OC", "note": "[Reserpine]", "values": [
      {"measurement": "natural tryptophan fluorescence of the peptide quenched by the drug", "setting": "[1]", "result": "quenched"}
    ]},
    {"molecule": "CC[C@]1(O)C[C@@H]2CN(CCc3c([nH]c4ccccc34)[C@@](C(=O)OC)(c3cc4c(cc3OC)N(C)[C@H]3[C@@](O)(C(=O)OC)[C@H](OC(C)=O)[C@]5(CC)C=CCN6CC[C@]43[C@@H]65)C2)C1", "note": "[Vinblastine]", "values": [
      {"measurement": "natural tryptophan fluorescence of the peptide quenched by the drug", "setting": "[1]", "result": "quenched"}
    ]},
    {"molecule": "Cyclosporin A", "values": [
      {"measurement": "natural tryptophan fluorescence of the peptide quenched by the drug", "setting": "[1]", "result": "quenched"}
    ]}
  ]
}
